From publication PMC10058245 (Science Advances, 2023)
Where a chain is given by its changes, count along the chain named.

Tests used:
[1] = biological target: T1, VRAC (SWELL1/LRRC8A-containing volume-regulated anion channel) (Homo sapiens, UniProt Q8IWT6); test: whole-cell patch clamp of hypotonicity-induced VRAC currents; type: cell-based
T1 sequence (Q8IWT6 1-810): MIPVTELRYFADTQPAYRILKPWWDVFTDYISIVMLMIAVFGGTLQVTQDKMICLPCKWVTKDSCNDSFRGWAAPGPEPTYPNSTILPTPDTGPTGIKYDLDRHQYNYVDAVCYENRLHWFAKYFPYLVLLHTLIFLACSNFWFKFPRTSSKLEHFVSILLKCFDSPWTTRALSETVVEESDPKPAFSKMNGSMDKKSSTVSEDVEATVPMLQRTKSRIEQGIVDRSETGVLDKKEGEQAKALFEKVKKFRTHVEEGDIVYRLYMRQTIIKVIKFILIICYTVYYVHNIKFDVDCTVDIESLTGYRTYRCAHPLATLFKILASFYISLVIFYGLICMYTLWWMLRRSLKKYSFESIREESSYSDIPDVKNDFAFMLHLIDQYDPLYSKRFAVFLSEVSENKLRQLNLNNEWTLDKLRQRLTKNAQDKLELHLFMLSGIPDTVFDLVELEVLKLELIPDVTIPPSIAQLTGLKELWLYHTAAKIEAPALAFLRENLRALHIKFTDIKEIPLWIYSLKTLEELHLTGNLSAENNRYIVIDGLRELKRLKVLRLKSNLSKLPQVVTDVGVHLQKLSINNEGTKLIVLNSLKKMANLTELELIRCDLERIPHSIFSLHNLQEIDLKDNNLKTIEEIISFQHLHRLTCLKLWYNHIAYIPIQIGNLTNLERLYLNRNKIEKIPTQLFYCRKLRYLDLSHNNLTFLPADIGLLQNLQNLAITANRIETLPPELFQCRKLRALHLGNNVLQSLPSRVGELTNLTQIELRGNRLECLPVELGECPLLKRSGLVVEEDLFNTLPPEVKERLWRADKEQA

[2] = biological target: T2, VRAC (Swell1/Lrrc8a-containing volume-regulated anion channel) (Mus musculus, UniProt Q80WG5); test: whole-cell patch clamp of hypotonicity-induced VRAC currents in BV2 microglia; type: cell-based
T2 sequence (Q80WG5 1-810): T1 sequence (Q8IWT6 1-810) with P75S, G76S, I86V, I276A, A591V, I715V, T722A, N792S

| IC50 [1] | IC50 [2] | SMILES |
| --- | --- | --- |
| 3.8 µM | 4.1 µM | O=c1oc2ccccc2c(O)c1Cc1c(O)c2ccccc2oc1=O [dicumarol] |
| 4.9 µM | – | COc1cc(C(=O)NS(=O)(=O)c2ccccc2C)ccc1Cc1cn(C)c2ccc(NC(=O)OC3CCCC3)cc12 [zafirlukast] |
